# According to patent US4511390A, “Aralkylcarbamoyl peptide alcohols” (E. I. Du Pont de Nemours and Company, priority 1983, dated 1985):
# Values joined by “and” are separate entries in the source; they are usually repeats but may differ in a detail not shown here. Equal values may be shown once.
# Columns and labels:
# pKa = format: physicochemical; conditions: two values given
# corn root sections [1] = test: Nitrate ion uptake by corn root sections measured with radioactive chlorate ion (36ClO3-) as mimic; format: cell-based, Corn (Pioneer Hybrid 3320); conditions: 50 ppm test compound; for activation at 50 ppm: Zea mays, read-out: Ion Uptake (percent increase over control) 36ClO3-
# Experimental: (§1) Corn (Pioneer Hybrid 3320), wheat (Arther), sorghum (SC-599-6), barley (CM-721), rice (m101), and cotton (Tamcot SP-37) seeds were disinfected with a 1% sodium hypochlorite solution and placed in 20.3 cm×30.5 cm×5.1 cm Pyrex glass utility trays which were lined with 4 layers of bleached paper towels and irrigated with 150 mL of 0.2 mM CaCl2 solution. The trays were covered with plastic food wrap, perforated to permit air exchange, and placed in a dark growth room which was maintained at 30° and 90% relative humidity. About 48 hours later, another 150 mL of 0.2 mM CaCl2 solution was added to each tray to maintain water sauration of the paper towels.
# (§2) Two centimeter root sections were cut 0.5 to 2.5 cm from the tip of 3-day-old etiolated seedling roots. Batches of 20 (for corn and cotton), or 40 (for wheat, barley and rice) root sections were tied in cheesecloth bags, leaving a 20-30 cm length of string to facilitate movement between test solutions. Root tissue was washed at 30±1° by immersing the cheesecloth bags in a well-aerated 0.2 mM K2 HPO4 /KH2 PO4 solution, pH 6.0, for 4 hours. During the last 30 minutes of this washing period, 1 mM potassium nitrate solution was introduced to induce nitrate reductase activity. For uniformity, 100 mL washing solution was used for every bag of root sections (about 300 mg fresh tissue).
# Nitrate ion uptake was measured using radioactive chlorate ion (^36 ClO3⊖) as a mimic for nitrate ion (Deane-Drummond et al., Plant Physiol. 70:50-54 (1982)). Uptake was measured by incubating 20 or 40 cheesecloth-bound washed root segments for 30 minutes in 100 mL absorption solution. The absorption solution contained 0.5 mM potassium nitrate, 0.2 mM calcium chloride, 5 mM MES buffer, and 5 mg/L sodium molybdate. This solution was adjusted to pH 6 with potassium hydroxide, and labeled with 10,000 cpm/ml of carrier-free radioactive chlorate ion. Absorption temperatures was maintained at 30±1° in a water bath, and moderate aeration was provided. All test compounds were added to the absorption solution. After the absorption period, the cheesecloth bag containing root sections was rinsed with distilled water for 10 seconds and then immersed in 100 mL of ice-cold, aerated 0.2 mM calcium chloride solution for 20 minutes to remove exchangeable components of absorbed ^36 ClO3⊖. Root sections were then removed from the cheesecloth bags, blotted dry, placed in a preweighed scintillation vial, and weighed to determine fresh tissue weight. One mL water and 10 mL Scinti Verse I (Fisher Scientific Co.) scintillation fluid were added, and radioactivity determined by scintillation counting. The rate of nitrate (^36 ClO3⊖) uptake in micromols per gram fresh weight of tissue per hour was calculated.
# (§3) Test compounds are identified in Table I by Example number, and by the identity of substituents X, Y, Z and R in the following formula: [drawing 23]
# corn plants [2] = test: Greenhouse test, growth of nitrate-deficient corn plants; format: in vivo; conditions: spray containing 50 ppm; 2-week old corn plants deficient in nitrate ion
# Experimental: Greenhouse tests were conducted by germinating corn seeds in a 25.4 cm pot containing a commercial potting soil mixture. After two weeks, seedlings were culled, leaving two plants in each pot. Distilled water was applied to maintain moisture levels and to leach carry-over nutrients from the potting soil mixtures. The remaining corn plants were randomized and divided into several groups for testing. Each test plant received a single 10 ml application of a test compound at 50 ppm, which was applied from a hand-held air-pressurized sprayer while the plant was rotated on a turntable in a spray hood. Each test compound was dissolved in a solution containing 50% (by volume) water and 50% AGWT diluent. AGWT diluent contains acetone, glycerol, water and polyoxyethylene sorbitan monolaurate in a volumetric ratio of 459:20:500:1. 250 mL of a complete, nitrate ion-free, potassium ion-free, and phosphate ion-free Hoagland nutrient solution were added to each pot twice weekly. This nutrient solution was supplemented with distilled water to maintain proper soil moisture. […] Plants were allowed to grow to maturity and yields were measured at the conclusion of each test.
# corn root sections [3] = test: Nitrate ion uptake by corn root sections (nitrate ion specific electrode); format: cell-based, Corn (Pioneer Hybrid 3320); conditions: for Ion Uptake (percent increase over control) NO3-: 50 ppm test compound, corn root sections
# Experimental: as §1, §2
# (§4) Nitrate ion uptake into corn roots was also determined by homogenizing root segments previously exposed to the nitrate absorption solution (without added ^36 ClO3⊖) with a precooled glass homogenizer in 5 mL of cold extraction medium. This medium contained 23 mM phosphate buffer pH 8.8, 5 mM cysteine, 2.5 mM EDTA, and 0.1% Neutronyx 600 (Onyx Chemical Co., Jersey City, N.J.). The resulting homogenate was centrifuged at 30,000 xg for 15 minutes, and an aliquot of the resulting supernatant solution reserved for nitrate ion determination, using an Orion nitrate ion specific electrode. The same tissue extract was used for nitrate reductase activity determination (below).
# as §3
# NO3 Reductase = test: Nitrate reductase activity in extracts of treated corn root sections; format: cell-based, Corn (Pioneer Hybrid 3320); conditions: 50 ppm test compound
# Experimental: as §1, §2
# as §4, with “The same tissue extract was used for nitrate reductase activity determination (below).” left out
# Nitrate reductase activity was determined using a modification of the procedure of Hageman and Huckles- by, Methods Enzymol. […]
# corn root sections [4] = test: Ammonium ion uptake by corn root sections (ammonium ion-specific electrode); format: cell-based, Corn (Pioneer Hybrid 3320); conditions: 50 ppm test compound
# Experimental: as §1
# Two centimeter root sections were cut 0.5 to 2.5 cm from the tip of 3-day-old etiolated seedling roots. Batches of 20 (for corn and cotton), or 40 (for wheat, barley and rice) root sections were tied in cheesecloth bags, leaving a 20-30 cm length of string to facilitate movement between test solutions. Root tissue was washed at 30±1° by immersing the cheesecloth bags in a well-aerated 0.2 mM K2 HPO4 /KH2 PO4 solution, pH 6.0, for 4 hours. […]
# Ammonium ion uptake was determined by measuring the disappearance of ammonium ion from an uptake solution containing 1 mmol ammonium chloride, 0.2 mM calcium chloride and 5 mM MES buffer, pH 6.0, with an Orion ammonium ion-specific electrode. […]
# wheat root sections = test: Nitrate ion uptake by plant root sections, wheat; format: cell-based, wheat (Arther)
# Experimental: as §1
# (§5) Two centimeter root sections were cut 0.5 to 2.5 cm from the tip of 3-day-old etiolated seedling roots. […]
# (§6) Nitrate ion uptake was measured using radioactive chlorate ion (^36 ClO3⊖) as a mimic for nitrate ion (Deane-Drummond et al., Plant Physiol. 70:50-54 (1982)). Uptake was measured by incubating 20 or 40 cheesecloth-bound washed root segments for 30 minutes in 100 mL absorption solution. […] One mL water and 10 mL Scinti Verse I (Fisher Scientific Co.) scintillation fluid were added, and radioactivity determined by scintillation counting. The rate of nitrate (^36 ClO3⊖) uptake in micromols per gram fresh weight of tissue per hour was calculated.
# rice root sections = test: Nitrate ion uptake by plant root sections, rice; format: cell-based, rice (m101)
# Experimental: as §1, §5, §6
# cotton root sections = test: Nitrate ion uptake by plant root sections, cotton; format: cell-based, cotton (Tamcot SP-37)
# Experimental: as §1, §5, §6
# corn plants [5] = test: Field test, grain yield of nitrogen-stressed corn; format: in vivo, corn (Pioneer Hybrid 3535)
# Experimental: Field tests were conducted by seeding corn (Pioneer Hybrid 3535) at a rate sufficient to obtain an excess plant population. The resulting population was thinned after emergence, 14 days after planting, to a density of about 64,000 plants per hectare, with plants about 20 cm apart in each row. The test population was subjected to severe nitrogen stress during development because only 67 kg nitrogen/hectare (60 lb/acre) were applied at planting. Nitrogen stress symptoms were apparent on lower plant leaves 32 days after emergence. Test compounds were applied to plants 34 days after emergence and 26 days prior to anthesis. Average canopy height at time of treatment was 85 cm. The treatments were applied from an acetone/water (1:3) solution with 0.2% added nonionic surfactant, using a hand-held nitrogen-pressurized sprayer. One day following treatment, an application of about 34 kg/ha (30 lb/acre) ammonium nitrate was broadcast on the ground and immediately worked into the root zone by irrigation.
# sorghum root sections = test: Nitrate ion uptake by plant root sections, sorghum; format: cell-based, sorghum (SC-599-6)
# Experimental: as §1, §5, §6
# barley root sections = test: Nitrate ion uptake by plant root sections, barley; format: cell-based, barley (CM-721)
# Experimental: as §1, §5, §6
smiles,measurement,setting,value
O=C(O)[C@H]1COCN1C(=O)OCc1ccccc1 [3-Carbobenzoxy oxazolidine-4R-carboxylic acid],pKa,pKa,3.80 and 3.90
O=C(O)[C@@H]1COCN1C(=O)OCc1ccccc1 [3-Carbobenzoxyoxazolidine-4S-carboxylic acid],pKa,pKa,4.35 and 4.30
C[C@H]1OCN(C(=O)OCc2ccccc2)[C@@H]1C(=O)O [3-carbobenzoxy-5R-methyloxazolidine-4S-carboxylic acid],pKa,pKa,4.65 and 4.60
"CC(C)C[C@@H](CO)NC(=O)[C@@H]1CCCN1C(=O)OCc1ccccc1 [Example 1, N-Carbobenzoxy-L-prolyl-L-leucinol]",activation at 50 ppm,corn root sections [1],26%
same,Growth of corn plants,corn plants [2],stimulated growth
same,Ion Uptake (percent increase over control) NO3-,corn root sections [3],40%
same,NO3- Reductase (percent increase over control),NO3 Reductase,-1%
same,Ion Uptake (percent increase over control) NH4+,corn root sections [4],80%
"CC(C)[C@@H](CO)NC(=O)[C@@H]1CCCN1C(=O)OCc1ccccc1 [Example 2, N-Carbobenzoxy-L-prolyl-L-valinol]",Nitrate Ion Uptake (percent increase over control),"wheat root sections; Wheat root sections, 50 ppm",55%
same,"Nitrate ion uptake enhancement, in words",wheat root sections; wheat,Significant stimulation
same,activation at 50 ppm,corn root sections [1],56%
same,Nitrate Ion Uptake (percent increase over control),"rice root sections; Rice root sections, 50 ppm",10%
same,"Nitrate ion uptake enhancement, in words",rice root sections; rice root tissues,insensitive
same,Nitrate Ion Uptake (percent increase over control),"cotton root sections; Cotton root sections, 50 ppm",-10%
same,"Nitrate ion uptake enhancement, in words",cotton root sections; cotton root tissues,insensitive
same,Ion Uptake (percent increase over control) NO3-,corn root sections [3],65%
same,Nitrate Ion Uptake (percent increase over control),"corn root sections [3]; Corn root sections, 50 ppm",65%
same,"Nitrate ion uptake enhancement, in words",corn root sections [3]; corn,Significant stimulation
same,Optimal media concentration for stimulation of nitrate ion uptake,"corn root sections [3]; immersed corn root sections, varying test concentrations",about 50 ppm
same,Grain yield (average),"corn plants [5]; second round of field tests, 0.035, 0.07 and 0.14 kg/ha, controls average 321",348 bushels/ha
same,Increase in grain yield,"corn plants [5]; second round of field tests, application rates 0.035, 0.07 and 0.14 kg/ha, all three",8-10%
same,Grain yield,"corn plants [5]; sprayed with 500 ppm (0.14 kg/ha), field grown corn, control 232",248 bushels/ha
same,Increase in grain yield,"corn plants [5]; sprayed with 500 ppm (0.14 kg/ha), field grown corn, p=0.05, vs. control",6.3%
same,Nitrate Ion Uptake (percent increase over control),"sorghum root sections; Sorghum root sections, 50 ppm",-5%
same,"Nitrate ion uptake enhancement, in words",sorghum root sections; sorghum root tissues,insensitive
same,NO3- Reductase (percent increase over control),NO3 Reductase,7%
same,Nitrate Ion Uptake (percent increase over control),"barley root sections; Barley root sections, 50 ppm",75%
same,"Nitrate ion uptake enhancement, in words",barley root sections; barley,Significant stimulation
same,Ion Uptake (percent increase over control) NH4+,corn root sections [4],100%
"O=C(NCCO)[C@@H]1CCCN1C(=O)OCc1ccccc1 [Example 4, N-Carbobenzoxy-L-prolyl-(β-hydroxyethyl)amide]",Ion Uptake (percent increase over control) 36ClO3-,corn root sections [1],24%
same,Ion Uptake (percent increase over control) NO3-,corn root sections [3],30%
same,NO3- Reductase (percent increase over control),NO3 Reductase,4%
"C[C@@H](CO)NC(=O)[C@@H]1CCCN1C(=O)OCc1ccccc1 [Example 5, N-Carbobenzoxy-L-prolyl-L-alaninol]",activation at 50 ppm,corn root sections [1],20%
"CC[C@@H](CO)NC(=O)[C@@H]1CCCN1C(=O)OCc1ccccc1 [Example 6, N-Carbobenzoxy-L-prolyl-L-homoalaninol]",activation at 50 ppm,corn root sections [1],20%
same,Ion Uptake (percent increase over control) NO3-,corn root sections [3],24%
"CC[C@H](CO)NC(=O)[C@@H]1CCCN1C(=O)OCc1ccccc1 [Example 7, N-Carbobenzoxy-L-prolyl-D-homoalaninol]",activation at 50 ppm,corn root sections [1],40%
same,Ion Uptake (percent increase over control) NO3-,corn root sections [3],41%
"CC(C)[C@H](CO)NC(=O)[C@@H]1CCCN1C(=O)OCc1ccccc1 [Example 8, N-Carbobenzoxy-L-prolyl-D-Valinol]",activation at 50 ppm,corn root sections [1],12%
"CC(C)[C@@H](CO)NC(=O)[C@H]1CCCN1C(=O)OCc1ccccc1 [Example 9, N-Carbobenzoxy-D-prolyl-L-valinol]",activation at 50 ppm,corn root sections [1],37%
"CC(C)[C@H](CO)NC(=O)[C@H]1CCCN1C(=O)OCc1ccccc1 [Example 10, N-Carbobenzoxy-D-prolyl-D-valinol]",activation at 50 ppm,corn root sections [1],41%
same,Ion Uptake (percent increase over control) NO3-,corn root sections [3],36%
"CC(C)[C@@H](CO)NC(=O)[C@@H]1COCN1C(=O)OCc1ccccc1 [Example 12, N-Carbobenzoxy-L-γ-oxaprolyl-L-valinol]",Ion Uptake (percent increase over control) 36ClO3-,corn root sections [1],18%
"CC(C)[C@@H](CO)NC(=O)[C@@H]1[C@@H](C)OCN1C(=O)OCc1ccccc1 [Example 13, N-Carbobenzoxy-5R-methyloxazolidine-4S-carbonyl-L-valinol]",Ion Uptake (percent increase over control) 36ClO3-,corn root sections [1],20%
"CC(C)[C@@H](CO)NC(=O)[C@@H]1CCCN1C(=O)OCc1ccc(F)cc1 [Example 15, N-(4-Fluorobenzyloxycarbonyl)-L-prolyl-L-valinol]",activation at 50 ppm,corn root sections [1],35%
same,Ion Uptake (percent increase over control) NO3-,corn root sections [3],30%
"CC(C)[C@@H](CO)NC(=O)[C@@H]1CCCN1C(=O)OCc1ccc(Cl)cc1 [Example 16, N-(p-Chlorobenzyloxycarbonyl) -L-prolyl-L-valinol]",activation at 50 ppm,corn root sections [1],14%
"Cc1ccc(COC(=O)N2CCC[C@H]2C(=O)N[C@H](CO)C(C)C)cc1 [Example 17, N-(p-Methylbenzyloxycarbonyl) -L-prolyl-L-valinol]",activation at 50 ppm,corn root sections [1],35%
same,Ion Uptake (percent increase over control) NO3-,corn root sections [3],39%
